From US20240245691A1 (Sitryx Therapeutics Limited, priority 2021, published 2024)
Read-outs that look alike come from different tables or passages of the source. Values belong to the compound of their own block, whether it stands above or below them.

Legend:
[1] = test system: NRF2 (nuclear factor erythroid 2-related factor 2); assay: NRF2 +/-GSH activation assay (DiscoverX PathHunter NRF2 translocation kit, U2OS cells); assay type: cell-based; conditions: Homo sapiens
[2] = test system: plasma protein; assay: Plasma protein binding (rapid equilibrium dialysis), mouse; assay type: in vitro ADME; conditions: 5 μM compound, 4 hours
Description: (§1) Equilibrium dialysis is an accurate and reliable method for determining protein binding affinities to chemical or biological substances of low molecular weight. The Rapid Equilibrium Dialysis (RED) plate is specifically designed and extensively validated for plasma protein binding assays. It is also designed for minimal non-specific binding (Thermo Fisher).
(§2) • Phosphate buffered saline (PBS) pH 7.4 was prepared using PBS tablets as per the manufacturer's instructions. • Compound and marker stocks were prepared at 10 mM in DMSO and further diluted to 100× the assay concentration in DMSO. • Plasma was thawed on the day of the assay and centrifuged. The supernatant was transferred to a fresh vessel and the pH adjusted to pH 7.4 using lactic acid or sodium hydroxide.
(§3) Pre-prepared 100× assay compound stocks were spiked 1:100 into pH adjusted plasma. 200 μL of spiked plasma was added to the red compartment of the rapid equilibrium dialysis (RED) device for each replicate. 350 μL of PBS was added to the buffer compartment. The plate was sealed with a breathable lid and shaken on an orbital shaker in a 37° C. incubator, 5% CO2 for 4 hours.
(§4) Standard final incubation conditions were 5 μM compound in plasma containing 1% (v/v) DMSO.
(§5) A sample of the plasma/compound mixture was taken, mixed with an equal volume of PBS and quenched 1:3 with ice-cold acetonitrile containing internal standard. Methanol was also added to matrix match with calibration curve samples. This was the t=0 sample.
(§6) Post-incubation, plasma and buffer were sampled from their respective RED device compartments into separate tubes containing an equal volume of the alternate matrix for each replicate. Samples were quenched 1:3 with ice-cold acetonitrile containing internal standard. Methanol was also added to matrix match with calibration curve samples.
Calibration curves were prepared in methanol and spiked such that the matrix was equivalent to the assay samples. […]
(§7) Fraction unbound, percent bound and percent recovery were the standard assay parameters reported. They were calculated using the following equations: […]

[3] = test system: cryo-preserved hepatocytes; assay: Hepatocyte stability assay, mouse; assay type: in vitro ADME; conditions: mouse, hepatocytes
Procedure, shortened: (§8)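 Cryopreserved hepatocytes at 0.5×10^6 cells/mL in Leibovitz buffer, 37 °C, with 10 μM compound (0.1% DMSO), duplicate. Samples at 0-60 min, acetonitrile quench, LC-MS/MS; intrinsic clearance and half-life from ln % remaining versus time, with buffer-only incubations as control.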

[4] = Hepatocyte stability assay, mouse; assay type: in vitro ADME; conditions: mouse, hepatocytes, T½
Procedure, shortened: as §8

[5] = test system: IL-6; assay: THP-1 AlphaLISA IL-6 cytokine assay (differentiated THP-1 cells); assay type: cell-based; conditions: Homo sapiens
Procedure, shortened: (§9)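 PMA-differentiated THP-1 cells were preincubated 30 min with compound, stimulated with LPS for 24 h, then nigericin for 1 h, all at 37 °C. Supernatant IL-1β and IL-6 were quantified by AlphaLISA. % inhibition is normalised to +LPS and −LPS controls per cytokine.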

[6] = test system: cryo-preserved hepatocytes; assay: Hepatocyte stability assay, human; assay type: in vitro ADME; conditions: human, hepatocytes
Procedure, shortened: as §8

[7] = Hepatocyte stability assay, human; assay type: in vitro ADME; conditions: human, hepatocytes, T½
Procedure, shortened: as §8

[8] = test system: plasma protein; assay: Plasma protein binding (rapid equilibrium dialysis), human; assay type: in vitro ADME; conditions: for Binding (%): Human plasma, 5 μM compound, 4 hours
Description: as §1, §2, §3, §4, §5, §6
Calibration curves were prepared in methanol and spiked such that the matrix was equivalent to the assay samples.
Quenched samples were mixed thoroughly and protein precipitated at −20° C. for a minimum of 12 hours. Samples were then centrifuged at 4° C. Supernatants were transferred to a fresh 96 well plate for analysis.
Positive control markers were included.
as §7
An example compound of formula (I) was tested in this assay. Reference Example 2 (RE2) (which corresponds to Example 49 in WO2020/222011 (Sitryx Therapeutics, 2020)) was used as a comparator compound.

[9] = test system: IL-1β; assay: THP-1 AlphaLISA IL-1β cytokine assay (differentiated THP-1 cells); assay type: cell-based; conditions: Homo sapiens
Procedure, shortened: as §9

Compound: C=C(CC(=O)N[C@@H](C)c1ccc(C(F)(F)F)cc1)C(=O)O [Example 3, (S)-2-methylene-4-oxo-4-((1-(4-(trifluoromethyl)phenyl)ethyl)amino)butanoic acid]
EC50 ([1]; U2OS, 6 h, read-out: NRF2 activation EC50, +GSH): > 100 µM
EC50 ([1]; U2OS, 6 h, read-out: NRF2 activation EC50, −GSH): > 100 µM
Emax ([1]; U2OS, read-out: NRF2 activation Emax, +GSH): 0%
Emax ([1]; U2OS, read-out: NRF2 activation Emax, −GSH): 0%
Binding (%) [2]: 86.8%
Clint [3]: <3 μL min^−1 10^−6 cells
half-life at 10 μM [4]: 6.7 h
half-life at 10 μM ([4]; data from repeated experiments): > 7.67 h
IC50 ([5]; THP-1, read-out: IL-6 (IC50)): > 82.5 µM
Clint [6]: 4 μL min^−1 10^−6 cells
half-life at 10 μM [7]: > 7.67 h
half-life at 10 μM ([7]; data from repeated experiments): 5.97 h
Binding (%) [8]: 89.0%
plasma protein binding compared to prior art ester compound (in words) ([8]; Table 4, human and mouse plasma): lower plasma protein binding
IC50 ([9]; THP-1, read-out: IL-1β (IC50)): 2.2 µM
IC50 ([9]; THP-1, read-out: IL-1β (IC50), data from repeated experiments): 4 µM

EC50 ([1]; +GSH, U2OS PathHunter cells, 6 hours, read-out: NRF2 activation EC50, +GSH): > 100 µM
EC50 ([1]; −GSH, U2OS PathHunter cells, 6 hours, read-out: NRF2 activation EC50, −GSH): > 100 µM
Binding (%) [2]: 83.7%
Clint [3]: 3 μL min^−1 10^−6 cells
half-life at 10 μM [4]: > 7.67 h
IC50 ([5]; THP-1, differentiated THP-1 cells, LPS 24 hr then Nigericin 1 hour, read-out: IL-6 (IC50)): > 63.1 µM
Clint [6]: <3 μL min^−1 10^−6 cells
T½ ([6]; 10 μM): >7.67 h
half-life at 10 μM [7]: 6.5 h
Binding (%) [8]: 89.2%
IC50 ([9]; THP-1, differentiated THP-1 cells, LPS 24 hr then Nigericin 1 hour, read-out: IL-1β (IC50)): 3.4 µM
IC50 ([9]; THP-1, differentiated THP-1 cells, footnote a: data from repeated experiments, read-out: IL-1β (IC50), data from repeated experiments): 3.9 µM
Compound: C=C(CC(=O)NC(C)(C)c1ccc(C(F)(F)F)cc1)C(=O)O [Example 4, 2-methylene-4-oxo-4-((2-(4-(trifluoromethyl)phenyl)propan-2-yl)amino)butanoic acid]
Emax ([1]; U2OS, +GSH, normalised to dimethyl fumarate high control, read-out: NRF2 activation Emax, +GSH): 0%
Emax ([1]; U2OS, −GSH, normalised to dimethyl fumarate high control, read-out: NRF2 activation Emax, −GSH): 1%
